In patent US20250002489A1, “BIFUNCTIONAL COMPOUNDS FOR DEGRADING ITK VIA UBIQUITIN PROTEOSOME PATHWAY” (NURIX THERAPEUTICS, INC., priority 2021, published 2025):

Biological target: T1, ITK (Jurkat or Molt4 cells) (Homo sapiens, UniProt Q08881)
T1 construct: either human Jurkat (Clone E6-1 ATCC TIB-152) or Motl4 (ATCC CRL-1552), were plated; endogenous in cells; host or cells: Jurkat Clone E6-1 (ATCC TIB-152) or Molt4 (ATCC CRL-1552)
T1 sequence (Q08881 1-620): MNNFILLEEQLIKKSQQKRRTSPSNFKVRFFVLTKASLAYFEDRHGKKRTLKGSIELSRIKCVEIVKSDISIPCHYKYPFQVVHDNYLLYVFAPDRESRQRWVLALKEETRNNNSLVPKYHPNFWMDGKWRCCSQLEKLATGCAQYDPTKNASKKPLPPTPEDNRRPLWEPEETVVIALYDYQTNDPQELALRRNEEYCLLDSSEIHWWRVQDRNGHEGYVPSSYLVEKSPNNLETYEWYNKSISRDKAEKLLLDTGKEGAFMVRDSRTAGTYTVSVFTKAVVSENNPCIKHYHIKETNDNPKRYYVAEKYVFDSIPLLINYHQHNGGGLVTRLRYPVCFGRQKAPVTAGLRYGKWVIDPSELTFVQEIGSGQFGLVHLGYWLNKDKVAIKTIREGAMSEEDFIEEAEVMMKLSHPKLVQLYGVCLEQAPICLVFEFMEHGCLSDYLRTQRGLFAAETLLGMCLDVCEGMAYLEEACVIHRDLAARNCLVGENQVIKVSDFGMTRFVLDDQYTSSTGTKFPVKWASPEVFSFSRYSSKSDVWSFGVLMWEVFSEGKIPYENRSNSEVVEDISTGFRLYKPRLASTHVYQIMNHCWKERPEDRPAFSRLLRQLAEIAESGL
Assay: ITK Degradation MSD (Meso Scale Discovery) Assay
Type: cell-based
Conditions: 4 or 6 hrs incubation; for DC50: best fit IC50 used as DC50
Experimental: Compound dilution series (7-point, 5-fold dilutions in DMSO, rows B—H with replicate in Column 1/2, 3/4, 5/6, 7, and 8 at 2000× the final required concentrations were prepared in 96-well plate (Falcon, cat. no. 353077). Row A, Column 1-8 were control DMSO. The 2000× solutions ranged from 2 mM to 128 nM (final assay concentration range 1 μM to […]). The 2000×solutions were added to cells in 10 μL volume, for a final DMSO concentration of 0.5% and final assay compound concentration of 1×. For the cells, either human Jurkat (Clone E6-1 ATCC TIB-152) or Motl4 (ATCC CRL-1552), were plated at 1×10^6 cells/mL, 100 μL/well ([…]) in complete RPMI (10% FBS, 1% L-glutamine). The cells were incubated with compounds 26-29 for 4 or 6 hrs at 32° C./6% CO2.
Following incubation, plates were centrifuged at 1200 rpm for 5 min. Supernatant was removed and 50 μL of cell lysis buffer (MSD Tris lysis buffer (R60TX), complete Mini EDTA-free protease inhibitor (Sigma 11836170001), Protease Inhibitor Cocktail (Sigma, P2714), Phosphatase Inhibitor Cocktail 2 and 3 (Sigma, P5726 and P0044), Benzonase (Sigma, E1014)) was added to each well. Plate was sealed and shook at 4° C. for 30 min. Plate was centrifuged and 45 μL was removed for plate assay.
Assay plate preparation: Meso Scale Discovery (MSD) multi-array sm spot 96-well plates (Goat anti-Rabbit L^45-RA), were blocked with 3% BSA blocking buffer (3% Bovine Serum Albumin (Sigma A3059)+TBS 0.2% Tween-20) for one hour with gentle rocking at room temperature. Plate was then washed with 200 μL of 1×TBST (TBS 0.2% Tween-20) three times. After the last wash, all liquid was removed and 50 μL per well of capture antibody (abcam ITK Y402-ab32507) was added to plate at a 1:1000 dilution in blocking buffer (see above). Plate was sealed and rocked at room temperature for 2 hrs. Plate was then washed three times with 200 μL of 1×TBST. After the last wash, all liquid was removed and 45 μL of cell lysate (from above) was added to plate. Plate was sealed and rocked overnight at 4° C. The next day, cell lysates were removed, and assay plate was washed three times with 200 μL of 1×TBST. After the last wash, liquid was removed and detection antibody (CST ITK (2F12) #2380) was added at 50 μL per well at a dilution of 1:1000 in blocking buffer. Plate was sealed and rocked at room temperature for 2 hrs. Plate was washed three times with 200 μL of 1×TBST. After the last wash, all liquid was removed, MSD […] sulfo tag (R32AC-1) was diluted to 1:1000 in blocking buffer. 50 μL was added to each well on the plate. Plate was sealed and incubated at room temperature for one hour. Plate was washed three times with 200 μL of 1×TBST. After last wash, all liquid was removed and 150 μL of 1×MSD Read Buffer T (R92PC) was then added to each well for ECL read out.
For reading ECL signal, plate was read on a Meso Scale Discovery (MSD) MESO Sector S 600 plate reader. Percent ITK was then calculated as described below.
Percent ITK remaining per sample was calculated as follows: […]
Using Graphpad Prism, % ITK remaining values were plotted as a function of compound concentration. To determine DC50 and Dmax values, resulting curves were fit to the Prism curve-fitting equation “log(inhibitor) vs response−Variable slope (four parameters)” (reported best fit value IC50 used as DC50).

Structure (SMILES)	DC50 [nM]	Dmax [%]
CN[C@@H](C)C(=O)N[C@H](C(=O)N1C[C@@H](NC(=O)CCOCCOCCOCCOCCC(=O)N2CC([C@@H](c3ccccc3)n3cc(NC(=O)c4n[nH]c5c4C[C@@H]4C(F)(F)[C@]4(C)C5)cn3)C2)C[C@H]1C(=O)N[C@@H]1CCCc2ccccc21)C1CCCCC1 [Compound 2, (4aS,5aR)—N-(1-((S)-(1-(16-(((3S,5S)-1-((S)-2-cyclohexyl-2-((S)-2-(methylamino)propanamido)acetyl)-5-(((R)-1,2,3,4-tetrahydronaphthalen-1-yl)carbamoyl)pyrrolidin-3-yl)amino)-16-oxo-4,7,10,13-tetraoxahexadecanoyl)azetidin-3-yl)(phenyl)methyl)-1H-pyrazol-4-yl)-5,5-difluoro-5a-methyl-1,4,4a,5,5a,6-hexahydrocyclopropa[f]indazole-3-carboxamide]	79.7	–
Cc1ncsc1-c1ccc([C@H](C)NC(=O)[C@@H]2C[C@@H](O)CN2C(=O)[C@@H](NC(=O)CCOCCOCCC(=O)N2CC([C@@H](c3ccccc3)n3cc(NC(=O)c4n[nH]c5c4C[C@@H]4C(F)(F)[C@]4(C)C5)cn3)C2)C(C)(C)C)cc1 [Compound 30, (4aS,5aR)-5,5-difluoro-N-(1-((S)-(1-(3-(2-(3-(((S)-1-((2S,4R)-4-hydroxy-2-(((S)-1-(4-(4-methylthiazol-5-yl)phenyl)ethyl)carbamoyl)pyrrolidin-1-yl)-3,3-dimethyl-1-oxobutan-2-yl)amino)-3-oxopropoxy)ethoxy)propanoyl)azetidin-3-yl)(phenyl)methyl)-1H-pyrazol-4-yl)-5a-methyl-1,4,4a,5,5a,6-hexahydrocyclopropa[f]indazole-3-carboxamide]	38.8	86.3
Cc1ncsc1-c1ccc(CNC(=O)[C@@H]2C[C@@H](O)CN2C(=O)[C@@H](NC(=O)C2(F)CC2)C(C)(C)C)c(OCCCC(=O)N2CC([C@@H](c3ccccc3)n3cc(NC(=O)c4n[nH]c5c4C[C@@H]4C(F)(F)[C@]4(C)C5)cn3)C2)c1 [Compound 33, (4aS,5aR)-5,5-difluoro-N-(1-((S)-(1-(4-(2-(((2S,4R)-1-((S)-2-(1-fluorocyclopropane-1-carboxamido)-3,3-dimethylbutanoyl)-4-hydroxypyrrolidine-2-carboxamido)methyl)-5-(4-methylthiazol-5-yl)phenoxy)butanoyl)azetidin-3-yl)(phenyl)methyl)-1H-pyrazol-4-yl)-5a-methyl-1,4,4a,5,5a,6-hexahydrocyclopropa[f]indazole-3-carboxamide]	27.9	94.5
CN[C@@H](C)C(=O)N[C@H](C(=O)N1CCC[C@H]1c1nc(C(=O)c2cccc(OCCCCCCN3CC([C@@H](c4ccccc4)n4cc(NC(=O)c5n[nH]c6c5C[C@@H]5C(F)(F)[C@]5(C)C6)cn4)C3)c2)cs1)C1CCCCC1 [Compound 9, (4aS,5aR)—N-(1-((S)-(1-(6-(3-(2-((S)-1-((S)-2-cyclohexyl-2-((S)-2-(methylamino)propanamido)acetyl)pyrrolidin-2-yl)thiazole-4-carbonyl)phenoxy)hexyl)azetidin-3-yl)(phenyl)methyl)-1H-pyrazol-4-yl)-5,5-difluoro-5a-methyl-1,4,4a,5,5a,6-hexahydrocyclopropa[f]indazole-3-carboxamide]	52.9	–

The next molecules have a lower DC50 than those just listed; values first:

DC50 [nM]	Dmax [%]	Structure (SMILES)
20.2	63.4	Cc1ncsc1-c1ccc(CNC(=O)[C@@H]2C[C@@H](O)CN2C(=O)[C@@H](NC(=O)C2(F)CC2)C(C)(C)C)c(OCC(=O)N2CC([C@@H](c3ccccc3)n3cc(NC(=O)c4n[nH]c5c4C[C@@H]4C(F)(F)[C@]4(C)C5)cn3)C2)c1 [Compound 32, (4aS,5aR)-5,5-difluoro-N-(1-((S)-(1-(2-(2-(((2S,4R)-1-((S)-2-(1-fluorocyclopropane-1-carboxamido)-3,3-dimethylbutanoyl)-4-hydroxypyrrolidine-2-carboxamido)methyl)-5-(4-methylthiazol-5-yl)phenoxy)acetyl)azetidin-3-yl)(phenyl)methyl)-1H-pyrazol-4-yl)-5a-methyl-1,4,4a,5,5a,6-hexahydrocyclopropa[f]indazole-3-carboxamide]
14.6	–	CN[C@@H](C)C(=O)N[C@H](C(=O)N1CCCC1c1nc(C(=O)c2cccc(OCCOCCC(=O)N3CC([C@@H](c4ccccc4)n4cc(NC(=O)c5n[nH]c6c5C[C@@H]5C(F)(F)[C@]5(C)C6)cn4)C3)c2)cs1)C1CCCCC1 (stereo in doubt) [Compound 5, (4aS,5aR)—N-(1-((S)-(1-(3-(2-(3-(2-((R)-1-((S)-2-cyclohexyl-2-((S)-2-(methylamino)propanamido)acetyl)pyrrolidin-2-yl)thiazole-4-carbonyl)phenoxy)ethoxy)propanoyl)azetidin-3-yl)(phenyl)methyl)-1H-pyrazol-4-yl)-5,5-difluoro-5a-methyl-1,4,4a,5,5a,6-hexahydrocyclopropa[f]indazole-3-carboxamide]
3.78	88	Cc1ncsc1-c1ccc([C@H](C)NC(=O)[C@@H]2C[C@@H](O)CN2C(=O)[C@@H](NC(=O)CC2CCN(c3ccc(C(=O)N4CC([C@@H](c5ccccc5)n5cc(NC(=O)c6n[nH]c7c6C[C@@H]6C(F)(F)[C@]6(C)C7)cn5)C4)nc3)CC2)C(C)(C)C)cc1 [Compound 22, (4aS,5aR)-5,5-difluoro-N-(1-((S)-(1-(5-(4-(2-(((S)-1-((2S,4R)-4-hydroxy-2-(((S)-1-(4-(4-methylthiazol-5-yl)phenyl)ethyl)carbamoyl)pyrrolidin-1-yl)-3,3-dimethyl-1-oxobutan-2-yl)amino)-2-oxoethyl)piperidin-1-yl)picolinoyl)azetidin-3-yl)(phenyl)methyl)-1H-pyrazol-4-yl)-5a-methyl-1,4,4a,5,5a,6-hexahydrocyclopropa[f]indazole-3-carboxamide]
1.27	94.6	Cc1ncsc1-c1ccc(CNC(=O)[C@@H]2C[C@@H](O)CN2C(=O)[C@@H](NC(=O)C2(F)CC2)C(C)(C)C)c(OCCCCCCCC(=O)N2CC([C@@H](c3ccccc3)n3cc(NC(=O)c4n[nH]c5c4C[C@@H]4C(F)(F)[C@]4(C)C5)cn3)C2)c1 [Compound 20, (4aS,5aR)-5,5-difluoro-N-(1-((S)-(1-(8-(2-(((2S,4R)-1-((S)-2-(1-fluorocyclopropane-1-carboxamido)-3,3-dimethylbutanoyl)-4-hydroxypyrrolidine-2-carboxamido)methyl)-5-(4-methylthiazol-5-yl)phenoxy)octanoyl)azetidin-3-yl)(phenyl)methyl)-1H-pyrazol-4-yl)-5a-methyl-1,4,4a,5,5a,6-hexahydrocyclopropa[f]indazole-3-carboxamide]
